The source of these data is PubChem BioAssay (NCI).

SMILES strings stand for the structures. Where “and” joins values, the source holds several entries; their conditions need not be identical. Equal values may be shown once.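 Where inhibition never reached the appropriate level, the endpoint shown equals the highest concentration tested. Otherwise, values were interpolated linearly from a five-concentration, 48-hour dose response in 96-well plates. GI50 marks 50% less growth. TGI marks complete inhibition of growth.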

Some test systems named below: EKVX NSCLC; HS 578T breast; HT29 colon; IGROV1 ovarian; M14 melanoma; NCI-H522 lung; OVCAR-8 ovarian; SF-539 CNS; SK-MEL-2 melanoma; SNB-75 CNS.
What all share (assay): NCI-60 cell line screen, 48 h

Consider `C=C1C(=O)O[C@H]2[C@H]1CC/C(COC(=O)OCCCCCOC(=O)OC/C1=C/CC[C@@]3(C)O[C@H]3[C@H]3OC(=O)C(=C)[C@@H]3CC1)=C\CC[C@@]1(C)O[C@@H]21`, for which the GI50 in the assay with EKVX NSCLC is 1.12 µM; in the assay with HS 578T breast, 2.48 µM; in the assay with HT29 colon, 0.242 µM; in the assay on IGROV1 ovarian it was 1.67 µM; with M14 melanoma, 0.406 µM; in the assay on NCI-H522 lung, 0.156 µM. In addition, the GI50 with OVCAR-8 ovarian was 0.331 µM; in the assay with SF-539 CNS, 0.61 µM; in the assay on SK-MEL-2 melanoma it was 1.37 µM; in the assay on SNB-75 CNS, 1.11 µM. Further, the TGI in the assay with EKVX NSCLC was 3.32 µM; in the assay on HS 578T breast it was 19.8 µM; with HT29 colon, 0.726 µM; with IGROV1 ovarian it was 4.37 µM; with M14 melanoma, 1.81 µM; with NCI-H522 lung, 0.372 µM. In addition, the TGI with OVCAR-8 ovarian was 0.998 µM; in the assay on SF-539 CNS it was 2.04 µM; in the assay with SK-MEL-2 melanoma, 3.31 µM; in the assay on SNB-75 CNS it was 2.5 µM.
Turning to `O=C(Cn1ccnc1[N+](=O)[O-])N(CCO)CCO`, the GI50 in the assay on EKVX NSCLC, in the assay with HT29 colon, in the assay on IGROV1 ovarian, with NCI-H522 lung, in the assay on OVCAR-8 ovarian and with SF-539 CNS was over 1250 µM throughout. In addition, the GI50 in the assay with SK-MEL-2 melanoma is over 1250 µM; with SNB-75 CNS, 182 µM. In addition, the TGI with EKVX NSCLC is over 1250 µM; in the assay on HS 578T breast, over 250 µM; in the assay with HT29 colon it was over 1250 µM; with IGROV1 ovarian, over 1250 µM; with M14 melanoma, over 250 µM; with NCI-H522 lung, over 1250 µM. The TGI was over 1250 µM with OVCAR-8 ovarian; over 1250 µM in the assay with SF-539 CNS; 250 µM and > 1250 µM in the assay on SK-MEL-2 melanoma; 250 µM and > 1250 µM in the assay with SNB-75 CNS.
Take `C=CC1CC12C(=O)C1OC2(C)C2C(=O)c3ccccc3C(=O)C12` (stereo not drawn): the GI50 was over 100 µM with EKVX NSCLC; over 57.4 µM with HS 578T breast; over 61.6 µM in the assay on HT29 colon; over 69.3 µM with IGROV1 ovarian; over 100 µM with M14 melanoma; over 61.7 µM with NCI-H522 lung. In addition, the GI50 was over 42.8 µM in the assay on OVCAR-8 ovarian, over 82 µM in the assay on SF-539 CNS, over 86 µM in the assay on SK-MEL-2 melanoma and over 37.4 µM in the assay with SNB-75 CNS. The TGI in the assay on EKVX NSCLC was over 100 µM; in the assay with HS 578T breast it was 98.2 µM; in the assay on HT29 colon, over 100 µM; with IGROV1 ovarian it was over 100 µM; in the assay with M14 melanoma, over 100 µM; in the assay with NCI-H522 lung it was over 100 µM. Moreover, the TGI is over 85.8 µM with OVCAR-8 ovarian, over 100 µM in the assay on SF-539 CNS, over 100 µM with SK-MEL-2 melanoma and over 76.1 µM in the assay on SNB-75 CNS.
On to `Cn1cc(-c2cc3c(Nc4ccc(CC(=O)Nc5cc(C(C)(C)C)on5)cc4)ncnc3[nH]2)cn1`, for which the GI50 is 1.66 µM and 1.81 µM in the assay on EKVX NSCLC; 0.42 µM and 0.276 µM with HS 578T breast; 1.1 µM and 1.11 µM in the assay with HT29 colon; 1.1 µM and 0.948 µM in the assay on IGROV1 ovarian; 0.961 µM and 0.69 µM in the assay with M14 melanoma; 0.469 µM and 0.528 µM with NCI-H522 lung. The GI50 is 0.893 µM and 0.49 µM in the assay with OVCAR-8 ovarian; 0.425 µM and 0.265 µM in the assay with SF-539 CNS; 0.835 µM and 0.943 µM in the assay with SK-MEL-2 melanoma; 0.655 µM and 0.133 µM with SNB-75 CNS. Also, the TGI with EKVX NSCLC is 5.01 µM and 5.31 µM; in the assay on HS 578T breast it was 1.72 µM and 1.56 µM; in the assay with HT29 colon, 6.95 µM and 9.63 µM; in the assay with IGROV1 ovarian it was 5.84 µM and 5.24 µM; in the assay with M14 melanoma, 3.02 µM and 2.3 µM; with NCI-H522 lung, 3.33 µM and 4.48 µM. Also, the TGI in the assay with OVCAR-8 ovarian is 5.06 µM and 4.54 µM; with SF-539 CNS it was 1.7 µM and 1.63 µM; in the assay on SK-MEL-2 melanoma it was 2.8 µM and 3.73 µM; with SNB-75 CNS it was 1.78 µM and 2.47 µM.
In the case of `O=C(c1ccccc1)c1ccc(-c2ccc(O)cc2)cc1`, the GI50 is 4.42 µM in the assay on EKVX NSCLC; 17.3 µM with HS 578T breast; 31.7 µM in the assay on HT29 colon; 3.69 µM with IGROV1 ovarian; 2.04 µM in the assay with M14 melanoma; 1.66 µM in the assay on NCI-H522 lung. In addition, the GI50 is 12.4 µM in the assay with OVCAR-8 ovarian, 14.6 µM in the assay with SF-539 CNS, 6.95 µM in the assay on SK-MEL-2 melanoma and 4.22 µM with SNB-75 CNS. In addition, the TGI in the assay with EKVX NSCLC was 41.5 µM; in the assay on HS 578T breast, over 53.3 µM; with HT29 colon, over 100 µM; in the assay with IGROV1 ovarian it was 22.7 µM; in the assay with M14 melanoma, over 100 µM; in the assay with NCI-H522 lung it was 8.47 µM. Also, the TGI with OVCAR-8 ovarian was 68.9 µM; in the assay with SF-539 CNS, 56.9 µM; in the assay with SK-MEL-2 melanoma, 61 µM; with SNB-75 CNS it was 34.5 µM.
Regarding `Cc1c(Cl)ccc2c1NC(=O)C2(O)CC(=O)c1ccc(Cl)cc1Cl` (stereo not drawn), the TGI was over 50 µM in the assay on EKVX NSCLC; 48.9 µM in the assay with HS 578T breast; over 50 µM in the assay on HT29 colon; over 50 µM with IGROV1 ovarian; over 50 µM with M14 melanoma; over 50 µM in the assay with NCI-H522 lung. Also, the TGI is over 50 µM with OVCAR-8 ovarian, over 50 µM in the assay on SF-539 CNS, over 50 µM in the assay with SK-MEL-2 melanoma and over 41.3 µM with SNB-75 CNS.
For `O=S(=O)(c1cccc(C(F)(F)F)c1)N1c2ccccc2-n2cccc2C1c1cccnc1` (stereo not drawn), the TGI is over 100 µM with EKVX NSCLC; over 76.3 µM with HS 578T breast; over 58 µM in the assay on HT29 colon; over 100 µM in the assay with IGROV1 ovarian; over 55.8 µM in the assay with M14 melanoma; over 53.6 µM in the assay with NCI-H522 lung. The TGI was over 100 µM in the assay on OVCAR-8 ovarian, over 60.9 µM in the assay with SF-539 CNS, over 52.2 µM with SK-MEL-2 melanoma and over 100 µM in the assay on SNB-75 CNS.
With `O=C(CC12CC3CC(CC(C3)C1)C2)NCCOCCOCCNC(=O)c1cc2c(o1)C(=O)c1ccccc1C2=O`, the GI50 in the assay with EKVX NSCLC was 1.84 µM; in the assay on HS 578T breast it was 1.43 µM; in the assay on HT29 colon, 2.38 µM; in the assay with IGROV1 ovarian, 1.41 µM; in the assay with M14 melanoma, 0.211 µM; in the assay with NCI-H522 lung, 1.34 µM. Moreover, the GI50 in the assay on OVCAR-8 ovarian is 0.813 µM; with SF-539 CNS it was 1.14 µM; in the assay on SK-MEL-2 melanoma it was 1.6 µM; in the assay on SNB-75 CNS, 1.56 µM. The TGI in the assay with EKVX NSCLC is 3.53 µM; with HS 578T breast, 5.18 µM; in the assay with HT29 colon, 5.85 µM; in the assay on IGROV1 ovarian, 3.21 µM; in the assay on M14 melanoma, 0.462 µM; in the assay with NCI-H522 lung, 3.04 µM. Also, the TGI in the assay with OVCAR-8 ovarian stood at 11.6 µM; with SF-539 CNS, 2.37 µM; in the assay with SK-MEL-2 melanoma it was 3.86 µM; with SNB-75 CNS it was 2.9 µM.
